Source: US20210077461A1, “NEW USE” (Novartis AG, priority 2013, published 2021)

Experiments:
[1] = test system: patients with chronic symptomatic heart failure and reduced ejection fraction (HF-REF); experiment: PARADIGM-HF: safety and tolerability
Description: Patients are assessed at each study visit for hyperkalaemia, symptomatic hypotension, increase in serum creatinine, angioedema and other AEs and serious AEs (SAEs). […] The dose of background disease modifying drugs, such as β-blockers, should not be reduced to facilitate maintenance of study drug. Every attempt should be made to re-challenge the patients so as to maintain as many patients as possible on the target dose of study drug.
All identified cases are submitted to an independent angioedema adjudication committee for a final decision.
Thus, this study employed a seamless design, incorporating “Phase II” into a “Phase III” outcomes trial, as considered further in the Discussion. Further interim safety assessments are planned twice a year.

[2] = test system: hypertensive patients; details: cited from earlier work
[3] = test system: patients with chronic symptomatic heart failure and reduced ejection fraction (HF-REF); experiment: PARADIGM-HF randomized double-blind trial, LCZ696 versus enalapril: efficacy outcomes; type: in vivo, human; details: for Death from any cause, number of patients / Death from any cause, percent of patients / Death from cardiovascular causes or first hospitalization for worsening heart failure (primary composite outcome), number of patients with an event / Death from cardiovascular causes or first hospitalization for worsening heart failure (primary composite outcome), percent of patients / Death from cardiovascular causes, number of patients / Death from cardiovascular causes, percent of patients / Decline in renal function, percent of patients / First hospitalization for worsening heart failure, number of patients / First hospitalization for worsening heart failure, percent of patients / Protocol-defined decline in renal function, number of patients: LCZ696 200 mg bid (N = 4187) or enalapril 10 mg bid (N = 4212); for Death from any cause, number of patients / Death from any cause, percent of patients / Death from cardiovascular causes or first hospitalization for worsening heart failure (primary composite outcome), number of patients with an event / Death from cardiovascular causes or first hospitalization for worsening heart failure (primary composite outcome), percent of patients / Death from cardiovascular causes, number of patients / Death from cardiovascular causes, percent of patients / Decline in renal function, percent of patients / First hospitalization for worsening heart failure, number of patients / First hospitalization for worsening heart failure, percent of patients / Protocol-defined decline in renal function, number of patients / New onset atrial fibrillation, number of patients with an event (as a fraction of number of patients at risk) / New onset atrial fibrillation, percent of patients at risk: median follow-up 27 months; for Progressed to end-stage renal disease, number of patients / New onset atrial fibrillation, number of patients with an event (as a fraction of number of patients at risk) / New onset atrial fibrillation, percent of patients at risk: LCZ696 200 mg bid or enalapril 10 mg bid; for KCCQ clinical summary score, direction of change when zero values were not imputed for patients who died: baseline to month 8
Text: Patients with chronic HF, NYHA functional class II-IV symptoms, an elevated plasma B-type natriuretic peptide (BNP) or NT-proBNP level and, initially, a left ventricular ejection fraction of ≤40% (later amended to ≤35%) are eligible. […] Secondary outcome measures are change in the Kansas City Cardiomyopathy Questionnaire (KCCQ) clinical summary score at 8 months, change in renal function, and time to all-cause mortality.
The trial was designed by the academic members of the Executive Committee (EC) in collaboration with Novartis personnel.
Entry criteria: 1) age 18 years or older and able to give written informed consent 2) New York Heart Association (NYHA) functional class II-IV, 3) left ventricular ejection fraction (LVEF) ≤35% (initially this was ≤40% but changed in a protocol amendment dated Dec. 15, 2010), 4) plasma B-type natriuretic peptide (BNP) ≥150 pg/ml (or N-terminal [NT]-proBNP ≥600 pg/ml) at the screening visit or a BNP ≥100 pg/mL (or NT-proBNP ≥400 pg/ml) and a hospitalization for HF within the last 12 months, 5) treatment with a stable dose of an ACE inhibitor or an ARB equivalent to enalapril 10 mg/d for at least 4 weeks before the screening visit, 6) treatment with stable dose of a β-blocker for at least 4 weeks prior to Visit 1, unless contraindicated or not tolerated. Although not required, the protocol specified that an aldosterone antagonist should also be considered in all patients, taking account of renal function, serum potassium and tolerability. If given, the dose of aldosterone antagonist should be stable for at least 4 weeks prior to the screening visit.
The key exclusion criteria include: • 1. […] Previous history of intolerance to recommended target doses of ACEIs or ARBs. • 3. Known history of angioedema. • 4. Requirement of treatment with both ACEIs and ARBs. • 5. Current acute decompensated heart failure (exacerbation of chronic heart failure manifested by signs and symptoms that may require intravenous therapy). • 6. Symptomatic hypotension and/or a systolic blood pressure (SBP)<100 mmHg at Visit 1 (screening) or <95 mmHg at Visit 3 or at Visit 5 (randomization). • 7. […] Serum potassium >5.2 mmol/L at Visit 1 (screening) or >5.4 mmol/L at Visit 3 or Visit 5 (randomization). • 9. Acute coronary syndrome, stroke, transient ischemic attack, cardiac, carotid or other major CV surgery, percutaneous coronary intervention or carotid angioplasty within the 3 months prior to Visit 1. • 10. Coronary or carotid artery disease likely to require surgical or percutaneous intervention within the 6 months after Visit 1. • 11. Implantation of a cardiac resynchronization therapy device (CRT) within 3 months prior
Visit 1 or intent to implant a CRT. • 12. History of heart transplant or on a transplant list or with left ventricular assistance device. • 13. History of severe pulmonary disease. • 14. Diagnosis of peripartum or chemotherapy induced cardiomyopathy within the 12 months prior to Visit 1. • 15. Documented untreated ventricular arrhythmia with syncopal episodes within the 3 months prior to Visit 1. • 16. Symptomatic bradycardia or second or third degree atrio-ventricular block without a pacemaker. • 17. Presence of haemodynamically significant mitral and/or aortic valve disease, except mitral regurgitation secondary to left ventricular dilatation. • 18. Presence of other haemodynamically significant obstructive lesions of left ventricular outflow tract, including aortic and sub-aortic stenosis. • 19. […] Presence of any other disease with a life expectancy of <5 years.
At the screening visit, patient eligibility was assessed according to the inclusion/exclusion criteria. Any local measurement of LVEF ≤35%, made within the past 6 months, was acceptable provided there was no subsequent LVEF measurement above 35%. Eligibility BNP (and NT-proBNP), serum potassium and estimated glomerular filtration rate (eGFR) were measured in a central laboratory.

[4] = test system: HF patients; details: cited from earlier work
[5] = test system: patients with heart failure; details: cited from earlier work
[6] = in vivo; cited from earlier work
[7] = zero values imputed for patients who died
[8] = subgroups by base-line treatment
[9] = LCZ696 group compared with enalapril group, stratified Cox model
[10] = over the duration of the trial, LCZ696 versus enalapril

CCOC(=O)[C@H](CCc1ccccc1)N[C@@H](C)C(=O)N1CCC[C@H]1C(=O)O [Enalapril, (2S)-1-[(2S)-2-{[(2S)-1-ethoxy-1-oxo-4-phenylbutan-2-yl]amino}propanoyl]-pyrrolidine-2-carboxylic acid, reference compound]
Angioedema confirmed by blinded adjudication, number of patients ([1]; human, in vivo): 10 patients
Patients who stopped study medication because of renal impairment ([1]; human, in vivo): 1.4%
Patients who stopped study medication for any adverse event ([1]; human, in vivo): 12.3%
Incidence of angioedema [2]: 0.68%
Death from any cause, number of patients [3]: 835 patients
Death from any cause, percent of patients [3]: 19.8%
Death from cardiovascular causes or first hospitalization for worsening heart failure (primary composite outcome), number of patients with an event [3]: 1117 patients
Death from cardiovascular causes or first hospitalization for worsening heart failure (primary composite outcome), percent of patients [3]: 26.5%
Death from cardiovascular causes, number of patients [3]: 693 patients
Death from cardiovascular causes, percent of patients [3]: 16.5%
Decline in renal function, percent of patients [3]: 2.6
First hospitalization for worsening heart failure, number of patients [3]: 658 patients
First hospitalization for worsening heart failure, percent of patients [3]: 15.6%
Protocol-defined decline in renal function, number of patients [3]: 108 patients
Progressed to end-stage renal disease, number of patients [3]: 16 patients
New onset atrial fibrillation, number of patients with an event (as a fraction of number of patients at risk) [3]: 83/2638
New onset atrial fibrillation, percent of patients at risk [3]: (3.2)
New onset atrial fibrillation, number of patients with an event (as a fraction of number of patients at risk) ([3]; listed as enalapril): 83 patients
KCCQ clinical summary score, direction of change when zero values were not imputed for patients who died [3]: declined
Mean change in KCCQ Clinical Summary Score from baseline to month 8 [3, 7]: −4.63
Incidence of angioedema [4]: 0.5%

CCCCC(=O)N(Cc1ccc(-c2ccccc2-c2nnn[nH]2)cc1)[C@H](C(=O)O)C(C)C [valsartan, (S)—N-valeryl-N-{[2′-(1H-tetrazole-5-yl)-biphenyl-4-yl]-methyl}-valine]
Incidence of the combined end point of mortality and morbidity, lower with valsartan than with placebo ([5]; Val-HeFT): 13.2%
NYHA class, ejection fraction, signs and symptoms of heart failure, and quality of life as compared with placebo ([5]; Val-HeFT): significant improvements
Number of patients hospitalized for heart failure ([5]; Val-HeFT): 346 patients
Overall mortality compared with placebo group ([5]; Val-HeFT): similar
Percent of patients hospitalized for heart failure ([5]; Val-HeFT): 13.8%
Post hoc analysis of the combined end point and mortality, patients receiving both ACE inhibitors and beta-blockers [5, 8]: adverse effect
Post hoc analysis of the combined end point and mortality, patients receiving neither or one of ACE inhibitors or beta-blockers [5, 8]: favorable effect
Combined end point of mortality and morbidity, relative risk ([5]; valsartan versus placebo): 0.87

O=C(N[C@H]1CCS[C@H]2CCC[C@@H](C(=O)O)N2C1=O)[C@@H](S)Cc1ccccc1 [omapatrilat]
Incidence of angioedema [2]: 2.17%
BP lowering as compared to other therapeutic classes, including ACE inhibitors and calcium channel blockers [6]: greater BP lowering
Incidence of angioedema [4]: 0.8%
Mortality and morbidity in patients with HF relative to enalapril [4]: encouraging trend toward reducing mortality and morbidity

CCCCC(=O)N(Cc1ccc(-c2ccccc2-c2nn[n-]n2)cc1)C(C(=O)[O-])C(C)C.CCOC(=O)C(C)CC(Cc1ccc(-c2ccccc2)cc1)NC(=O)CCC(=O)[O-].[Na+].[Na+].[Na+] [LCZ696, trisodium [3-((1S,3R)-1-biphenyl-4-ylmethyl-3-ethoxycarbonyl-1-butylcarbamoyl)propionate-(S)-3′-methyl-2′-(pentanoyl{2″-(tetrazol-5-ylate)biphenyl-4′-ylmethyl}amino)butyrate] hemipentahydrate]
Angioedema confirmed by blinded adjudication, number of patients ([1]; following randomization): 19 patients
Cough as an adverse event, compared with the enalapril group ([1]; following randomization): less and less likely
Experience of serum creatinine level ≥2.5 mg/dl, compared with the enalapril group ([1]; following randomization): less likely
Experience of serum potassium level >6.0 mmol/l, compared with the enalapril group ([1]; following randomization): less likely
Hypotension / report of symptomatic hypotension, compared with the enalapril group ([1]; following randomization): more and more likely
Patients who stopped study medication because of renal impairment ([1]; following randomization): 0.7%
Patients who stopped study medication for any adverse event ([1]; following randomization): 10.7%
Hyperkalemia, compared with the enalapril group ([1]; in vivo): less
Non-serious angioedema, compared with the enalapril group ([1]; in vivo): more
Renal impairment, compared with the enalapril group ([1]; in vivo): less
Death from any cause, number of patients [3]: 711 patients
Death from any cause, percent of patients [3]: 17.0%
Death from cardiovascular causes or first hospitalization for worsening heart failure (primary composite outcome), number of patients with an event [3]: 914 patients
Death from cardiovascular causes or first hospitalization for worsening heart failure (primary composite outcome), percent of patients [3]: 21.8%
Death from cardiovascular causes, number of patients [3]: 558 patients
Death from cardiovascular causes, percent of patients [3]: 13.3%
Decline in renal function, percent of patients [3]: 2.3
First hospitalization for worsening heart failure, number of patients [3]: 537 patients
First hospitalization for worsening heart failure, percent of patients [3]: 12.8%
Protocol-defined decline in renal function, number of patients [3]: 94 patients
Progressed to end-stage renal disease, number of patients [3]: 8 patients
New onset atrial fibrillation, percent of patients at risk [3]: (3.2)
Death from any cause, hazard ratio [3, 9]: 0.84
Death from cardiovascular causes, hazard ratio [3, 9]: 0.80
Decline in renal function, hazard ratio [3, 9]: 0.86
First hospitalization for worsening heart failure, hazard ratio [3, 9]: 0.79
New onset atrial fibrillation, hazard ratio [3, 9]: 0.97
Primary composite outcome, hazard ratio [3, 9]: 0.80
KCCQ clinical summary score change, between-group difference when zero values were not imputed for patients who died ([3]; LCZ696 group versus enalapril group): 0.95
KCCQ clinical summary score change at 8 months, between-group difference ([3]; LCZ696 group versus enalapril group, zero values imputed for patients who died): 1.64
Reduction of the risk of cardiovascular death and the risk of hospitalization for heart failure compared to enalapril ([3]; LCZ696 versus ACE inhibition with enalapril): 20%
Reduction of hospitalization for heart failure compared to enalapril ([3]; LCZ696 versus enalapril): 21%
KCCQ clinical summary score, direction of change when zero values were not imputed for patients who died [3]: improved
Systolic blood pressure at 8 months compared with value at randomization, lower in the LCZ696 group than in the enalapril group ([3]; difference between groups at 8 months): 3.2±0.4 mm Hg
Number of patients needed to treat to prevent one cardiovascular death [3, 10]: 32 patients
Number of patients needed to treat to prevent one primary event [3, 10]: 21 patients
Mean change in KCCQ Clinical Summary Score from baseline to month 8 [3, 7]: −2.99
